Key:
KV4.2 = molecular target: T1, KV4.2 (Homo sapiens, UniProt Q9NZV8); assay: whole-cell patch clamp, persistent current, transfected HEK293T cells; type: cell-based
T1 construct: gene KCND2
T1 sequence (Q9NZV8 1-630): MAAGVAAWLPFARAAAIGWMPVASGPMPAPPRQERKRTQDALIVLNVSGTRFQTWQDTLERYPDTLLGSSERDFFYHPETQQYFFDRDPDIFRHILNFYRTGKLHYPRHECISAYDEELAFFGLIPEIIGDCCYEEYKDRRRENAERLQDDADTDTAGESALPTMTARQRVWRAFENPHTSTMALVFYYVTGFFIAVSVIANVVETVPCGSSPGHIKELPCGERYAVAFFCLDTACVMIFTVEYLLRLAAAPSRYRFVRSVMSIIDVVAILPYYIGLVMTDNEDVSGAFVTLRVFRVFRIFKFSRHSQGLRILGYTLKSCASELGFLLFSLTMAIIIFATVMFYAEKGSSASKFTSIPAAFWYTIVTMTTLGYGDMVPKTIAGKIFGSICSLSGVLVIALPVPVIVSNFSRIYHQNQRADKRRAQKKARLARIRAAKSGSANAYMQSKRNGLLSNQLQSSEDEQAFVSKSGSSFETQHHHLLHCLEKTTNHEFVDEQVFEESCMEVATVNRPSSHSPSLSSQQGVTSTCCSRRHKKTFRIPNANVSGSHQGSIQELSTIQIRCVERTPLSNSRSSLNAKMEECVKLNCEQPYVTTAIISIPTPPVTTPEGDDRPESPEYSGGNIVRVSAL

KV1.4 = molecular target: T2, KV1.4 (Homo sapiens, UniProt P22459); assay: as above; type: cell-based
T2 construct: gene KCNA4; human KCNA4 cDNA in pCMV3, expressed in HEK293T cells
T2 sequence (P22459 whole entry): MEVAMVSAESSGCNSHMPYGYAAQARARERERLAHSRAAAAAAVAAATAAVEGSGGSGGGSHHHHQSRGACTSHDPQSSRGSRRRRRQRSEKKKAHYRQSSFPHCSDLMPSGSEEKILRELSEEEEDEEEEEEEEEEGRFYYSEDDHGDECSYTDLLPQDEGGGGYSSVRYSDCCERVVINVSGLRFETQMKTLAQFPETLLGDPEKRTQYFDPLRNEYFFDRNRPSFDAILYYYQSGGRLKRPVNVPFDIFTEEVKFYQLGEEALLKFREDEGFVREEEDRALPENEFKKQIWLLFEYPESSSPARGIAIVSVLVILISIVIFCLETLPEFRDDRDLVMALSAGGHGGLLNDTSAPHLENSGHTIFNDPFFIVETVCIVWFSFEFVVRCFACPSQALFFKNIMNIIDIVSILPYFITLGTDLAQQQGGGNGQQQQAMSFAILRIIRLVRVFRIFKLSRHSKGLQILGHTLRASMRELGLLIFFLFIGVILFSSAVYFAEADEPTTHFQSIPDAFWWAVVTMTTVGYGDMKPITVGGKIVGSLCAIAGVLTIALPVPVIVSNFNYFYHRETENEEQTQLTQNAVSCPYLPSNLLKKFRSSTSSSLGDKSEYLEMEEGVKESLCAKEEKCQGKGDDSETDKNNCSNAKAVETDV

Compound O=C(NCc1ccncc1)C12CC3CC(C1)CC(c1ccc(Cl)cc1)(C3)C2 [ABC294640] has an IC50 (KV4.2) of 4.77 ± 0.68 µM and an IC50 (KV1.4) of 2.76 ± 0.28 µM.

— article PMC7515484, “Sphingosine kinase 2 inhibitor ABC294640 suppresses neuronal excitability and inhibits multiple endogenously and exogenously expressed voltage-gated ion channels in cultured cells” (Channels, 2020)
